Active and inactive are the calls of the source. The rule behind the calls is not given here.
Assays:
[1] = molecular target: T1, SH2 domain-containing protein 1A (Homo sapiens) (UniProt O60880); assay: Inhibition of recombinant 6-His-tagged SLAM associated protein SH2 domain (unknown origin) expressed in Escherichia coli BL21(DE3) binding to biotinyl-KKSLTIpYAQVQK-NH2 attached to NeutrAvidin-coated plates using p-nitrophenyl phosphate as substrate at 100 uM after 1 hr
T1 sequence (whole entry): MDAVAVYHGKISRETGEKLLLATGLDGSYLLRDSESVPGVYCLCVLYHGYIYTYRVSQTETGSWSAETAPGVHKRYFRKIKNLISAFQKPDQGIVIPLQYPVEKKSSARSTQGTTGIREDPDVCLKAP

[2] = molecular target: T1, SH2 domain-containing protein 1A (Homo sapiens); assay: Inhibition of recombinant 6-His-tagged SLAM associated protein SH2 domain (unknown origin) expressed in Escherichia coli BL21(DE3) binding to biotinyl-KKSLTIpYAQVQK-NH2 attached to NeutrAvidin-coated plates using p-nitrophenyl phosphate as substrate at 10 uM after 1 hr relative to control

NC(=O)C[C@H](NC(=O)[C@H](Cc1ccc2c(c1)COP(=O)(O)O2)NC(=O)OCC1c2ccccc2-c2ccccc21)C(N)=O
inhibition [1]: Active | fold change (FC) [2]: 1.29

COC(=O)[C@H](Cc1ccc2c(c1)COP(=O)(O)O2)NC(=O)[C@H](COC(C)(C)C)NC(=O)OCC1c2ccccc2-c2ccccc21
inhibition [1]: Active | fold change (FC) [2]: 0.85

NCCCC[C@H](NC(=O)[C@H](Cc1ccc2c(c1)COP(=O)(O)O2)NC(=O)OCC1c2ccccc2-c2ccccc21)C(N)=O
inhibition [1]: Active | fold change (FC) [2]: 1.22

COC(=O)[C@H](Cc1ccc2c(c1)COP(=O)(O)O2)NC(=O)[C@@H](NC(=O)OCC1c2ccccc2-c2ccccc21)[C@@H](C)O
inhibition [1]: Active | fold change (FC) [2]: 0.82

CC[C@H](C)[C@H](NC(=O)OCC1c2ccccc2-c2ccccc21)C(=O)N[C@@H](Cc1ccc2c(c1)COP(=O)(O)O2)C(=O)OC
inhibition [1]: Active | fold change (FC) [2]: 1.51

COC(=O)[C@H](Cc1ccc2c(c1)COP(=O)(O)O2)NC(=O)[C@H](CCCCNC(=O)OC(C)(C)C)NC(=O)OCC1c2ccccc2-c2ccccc21
inhibition [1]: Active | fold change (FC) [2]: 0.85

NC(=O)CNC(=O)[C@H](Cc1ccc2c(c1)COP(=O)(O)O2)NC(=O)OCC1c2ccccc2-c2ccccc21
inhibition [1]: Active | fold change (FC) [2]: 1.07

COC(=O)[C@H](Cc1ccc2c(c1)COP(=O)(O)O2)NC(=O)[C@H](Cc1c[nH]cn1)NC(=O)OCC1c2ccccc2-c2ccccc21
inhibition [1]: Active | fold change (FC) [2]: 0.89

CC(C)(C)OC(=O)CC[C@H](NC(=O)[C@H](Cc1ccc2c(c1)COP(=O)(O)O2)NC(=O)OCC1c2ccccc2-c2ccccc21)C(N)=O
inhibition [1]: Active | fold change (FC) [2]: 1.47

C[C@@H](OC(C)(C)C)[C@H](NC(=O)[C@H](Cc1ccc2c(c1)COP(=O)(O)O2)NC(=O)OCC1c2ccccc2-c2ccccc21)C(N)=O
inhibition [1]: Active | fold change (FC) [2]: 1.13

CC(C)C[C@H](NC(=O)[C@H](Cc1ccc2c(c1)COP(=O)(O)O2)NC(=O)OCC1c2ccccc2-c2ccccc21)C(N)=O
inhibition [1]: Active | fold change (FC) [2]: 0.99

COC(=O)[C@H](Cc1ccc2c(c1)COP(=O)(O)O2)NC(=O)[C@H](Cc1c[nH]c2ccccc12)NC(=O)OCC1c2ccccc2-c2ccccc21
inhibition [1]: Active | fold change (FC) [2]: 0.94

COC(=O)[C@H](Cc1ccc2c(c1)COP(=O)(O)O2)NC(=O)[C@@H]1CCCN1C(=O)OCC1c2ccccc2-c2ccccc21
inhibition [1]: Active | fold change (FC) [2]: 0.81

Cc1c(C)c(S(=O)(=O)NC(=N)NCCC[C@H](NC(=O)[C@H](Cc2ccc3c(c2)COP(=O)(O)O3)NC(=O)OCC2c3ccccc3-c3ccccc32)C(N)=O)c(C)c2c1OC(C)(C)C2
inhibition [1]: Active | fold change (FC) [2]: 0.94

COC(=O)[C@H](Cc1ccc2c(c1)COP(=O)(O)O2)NC(=O)[C@H](CC(=O)NC(c1ccccc1)(c1ccccc1)c1ccccc1)NC(=O)OCC1c2ccccc2-c2ccccc21
inhibition [1]: Active | fold change (FC) [2]: 1.06

COC(=O)[C@H](Cc1ccc2c(c1)COP(=O)(O)O2)NC(=O)[C@H](CCCCN)NC(=O)OCC1c2ccccc2-c2ccccc21
inhibition [1]: Active | fold change (FC) [2]: 1.05

CC(C)[C@H](NC(=O)[C@H](Cc1ccc2c(c1)COP(=O)(O)O2)NC(=O)OCC1c2ccccc2-c2ccccc21)C(N)=O
inhibition [1]: Active | fold change (FC) [2]: 1

COC(=O)[C@H](Cc1ccc2c(c1)COP(=O)(O)O2)NC(=O)[C@H](CCSC)NC(=O)OCC1c2ccccc2-c2ccccc21
inhibition [1]: Active | fold change (FC) [2]: 0.85

COC(=O)[C@H](Cc1ccc2c(c1)COP(=O)(O)O2)NC(=O)[C@H](CO)NC(=O)OCC1c2ccccc2-c2ccccc21
inhibition [1]: Active | fold change (FC) [2]: 1.13

COC(=O)[C@H](Cc1ccc2c(c1)COP(=O)(O)O2)NC(=O)[C@H](Cc1ccc(O)cc1)NC(=O)OCC1c2ccccc2-c2ccccc21
inhibition [1]: Active | fold change (FC) [2]: 1.05

COC(=O)[C@H](Cc1ccc2c(c1)COP(=O)(O)O2)NC(=O)[C@H](CCCNC(=N)N)NC(=O)OCC1c2ccccc2-c2ccccc21
inhibition [1]: Active | fold change (FC) [2]: 0.91

CC(C)(C)OC(=O)C[C@H](NC(=O)[C@H](Cc1ccc2c(c1)COP(=O)(O)O2)NC(=O)OCC1c2ccccc2-c2ccccc21)C(N)=O
inhibition [1]: Active | fold change (FC) [2]: 1.24

COC(=O)[C@H](Cc1ccc2c(c1)COP(=O)(O)O2)NC(=O)[C@H](CC(=O)O)NC(=O)OCC1c2ccccc2-c2ccccc21
inhibition [1]: Active | fold change (FC) [2]: 0.84

CC(C)(C)Oc1ccc(C[C@H](NC(=O)[C@H](Cc2ccc3c(c2)COP(=O)(O)O3)NC(=O)OCC2c3ccccc3-c3ccccc32)C(N)=O)cc1
inhibition [1]: Active | fold change (FC) [2]: 1.24

NC(=O)CC[C@H](NC(=O)[C@H](Cc1ccc2c(c1)COP(=O)(O)O2)NC(=O)OCC1c2ccccc2-c2ccccc21)C(N)=O
inhibition [1]: Active | fold change (FC) [2]: 0.99

COC(=O)[C@H](Cc1ccc2c(c1)COP(=O)(O)O2)NC(=O)[C@H](CC(N)=O)NC(=O)OCC1c2ccccc2-c2ccccc21
inhibition [1]: Active | fold change (FC) [2]: 0.8

NC(=O)[C@H](Cc1ccc(O)cc1)NC(=O)[C@H](Cc1ccc2c(c1)COP(=O)(O)O2)NC(=O)OCC1c2ccccc2-c2ccccc21
inhibition [1]: Active | fold change (FC) [2]: 0.95

COC(=O)[C@H](Cc1ccc2c(c1)COP(=O)(O)O2)NC(=O)[C@H](Cc1ccc2c(c1)COP(=O)(O)O2)NC(=O)OCC1c2ccccc2-c2ccccc21
inhibition [1]: Active | fold change (FC) [2]: 1.09

COC(=O)[C@H](Cc1ccc2c(c1)COP(=O)(O)O2)NC(=O)[C@H](CCC(N)=O)NC(=O)OCC1c2ccccc2-c2ccccc21
inhibition [1]: Active | fold change (FC) [2]: 1.09

COC(=O)[C@H](Cc1ccc2c(c1)COP(=O)(O)O2)NC(=O)[C@H](CCCNC(=N)NS(=O)(=O)c1c(C)c(C)c2c(c1C)CC(C)(C)O2)NC(=O)OCC1c2ccccc2-c2ccccc21
inhibition [1]: Active | fold change (FC) [2]: 0.75

COC(=O)[C@H](Cc1ccc2c(c1)COP(=O)(O)O2)NC(=O)[C@H](CCC(=O)O)NC(=O)OCC1c2ccccc2-c2ccccc21
inhibition [1]: Active | fold change (FC) [2]: 0.95

NC(=O)[C@H](CC(=O)NC(c1ccccc1)(c1ccccc1)c1ccccc1)NC(=O)[C@H](Cc1ccc2c(c1)COP(=O)(O)O2)NC(=O)OCC1c2ccccc2-c2ccccc21
inhibition [1]: Active | fold change (FC) [2]: 1.03

COC(=O)[C@H](Cc1ccc2c(c1)COP(=O)(O)O2)NC(=O)[C@H](C)NC(=O)OCC1c2ccccc2-c2ccccc21
inhibition [1]: Active | fold change (FC) [2]: 0.89

COC(=O)[C@H](Cc1ccc2c(c1)COP(=O)(O)O2)NC(=O)[C@H](CC(=O)OC(C)(C)C)NC(=O)OCC1c2ccccc2-c2ccccc21
inhibition [1]: Active | fold change (FC) [2]: 0.9

NC(=O)[C@H](Cc1c[nH]c2ccccc12)NC(=O)[C@H](Cc1ccc2c(c1)COP(=O)(O)O2)NC(=O)OCC1c2ccccc2-c2ccccc21
inhibition [1]: Active | fold change (FC) [2]: 1.36

COC(=O)[C@H](Cc1ccc2c(c1)COP(=O)(O)O2)NC(=O)[C@@H](NC(=O)OCC1c2ccccc2-c2ccccc21)[C@@H](C)OC(C)(C)C
inhibition [1]: Active | fold change (FC) [2]: 0.85

CSCC[C@H](NC(=O)[C@H](Cc1ccc2c(c1)COP(=O)(O)O2)NC(=O)OCC1c2ccccc2-c2ccccc21)C(N)=O
inhibition [1]: Active | fold change (FC) [2]: 0.91

COC(=O)[C@H](Cc1ccc2c(c1)COP(=O)(O)O2)NC(=O)[C@@H](NC(=O)OCC1c2ccccc2-c2ccccc21)C(C)C
inhibition [1]: Active | fold change (FC) [2]: 1.29

NC(=O)[C@H](CO)NC(=O)[C@H](Cc1ccc2c(c1)COP(=O)(O)O2)NC(=O)OCC1c2ccccc2-c2ccccc21
inhibition [1]: Active | fold change (FC) [2]: 0.9

NC(=O)[C@H](CCC(=O)O)NC(=O)[C@H](Cc1ccc2c(c1)COP(=O)(O)O2)NC(=O)OCC1c2ccccc2-c2ccccc21
inhibition [1]: Active | fold change (FC) [2]: 1.31

COC(=O)[C@H](Cc1ccc2c(c1)COP(=O)(O)O2)NC(=O)[C@H](CC(C)C)NC(=O)OCC1c2ccccc2-c2ccccc21
inhibition [1]: Active | fold change (FC) [2]: 1.17

NC(=O)[C@H](CCC(=O)NC(c1ccccc1)(c1ccccc1)c1ccccc1)NC(=O)[C@H](Cc1ccc2c(c1)COP(=O)(O)O2)NC(=O)OCC1c2ccccc2-c2ccccc21
inhibition [1]: Active | fold change (FC) [2]: 1.07

COC(=O)[C@H](Cc1ccc2c(c1)COP(=O)(O)O2)NC(=O)[C@H](CCC(=O)OC(C)(C)C)NC(=O)OCC1c2ccccc2-c2ccccc21
inhibition [1]: Active | fold change (FC) [2]: 1.1

C[C@@H](O)[C@H](NC(=O)[C@H](Cc1ccc2c(c1)COP(=O)(O)O2)NC(=O)OCC1c2ccccc2-c2ccccc21)C(N)=O
inhibition [1]: Active | fold change (FC) [2]: 1.22

COC(=O)[C@H](Cc1ccc2c(c1)COP(=O)(O)O2)NC(=O)[C@H](Cc1ccc(OC(C)(C)C)cc1)NC(=O)OCC1c2ccccc2-c2ccccc21
inhibition [1]: Active | fold change (FC) [2]: 0.96

COC(=O)[C@H](Cc1ccc2c(c1)COP(=O)(O)O2)NC(=O)[C@H](Cc1ccccc1)NC(=O)OCC1c2ccccc2-c2ccccc21
inhibition [1]: Active | fold change (FC) [2]: 0.84

COC(=O)[C@H](Cc1ccc2c(c1)COP(=O)(O)O2)NC(=O)[C@H](CCC(=O)NC(c1ccccc1)(c1ccccc1)c1ccccc1)NC(=O)OCC1c2ccccc2-c2ccccc21
inhibition [1]: Active | fold change (FC) [2]: 1.11

CC[C@H](C)[C@H](NC(=O)[C@H](Cc1ccc2c(c1)COP(=O)(O)O2)NC(=O)OCC1c2ccccc2-c2ccccc21)C(N)=O
inhibition [1]: Active | fold change (FC) [2]: 1.05

From ChEMBL document CHEMBL2321862, “Development and evaluation of novel phosphotyrosine mimetic inhibitors targeting the Src homology 2 domain of signaling lymphocytic activation molecule (SLAM) associated protein” (J Med Chem, 2013)
